SMILES strings stand for the structures. Where a name gives a salt, the structure may show the parent alone.

In turn, `Fc1ccccc1[C@@H]1Cc2cnc(Nc3ccc(CCN4CCCCC4)cc3)nc2-c2ccccc21` (as salt: hydrochloride) [Example 67, (R)-6-(2-fluorophenyl)-N-(4-(2-(piperidin-1-yl)ethyl)phenyl)-5,6-dihydrobenzo[h]quinazolin-2-amine hydrochloride] gave a melting point of 170 to 174 °C.

With `CC(C)(C)OC(=O)N1CCC(Nc2ncc3c(n2)-c2ccccc2C(c2ccc(Cl)c(Cl)c2)C3)CC1` (stereo not drawn) [Example 19, tert-butyl 4-(6-(3,4-dichlorophenyl)-5,6-dihydrobenzo[h]quinazolin-2-ylamino)piperidine-1-carboxylate], the melting point fell in the range of 94 to 96 °C.

Regarding `N#Cc1c(N)ncc2c1-c1ccccc1C(c1ccc(Cl)cc1Cl)C2` (stereo not drawn) [Example 151, 2-amino-6-(2,4-dichlorophenyl)-5,6-dihydrobenzo[f]isoquinoline-1-carbonitrile], the melting point was in the range of 282 to 284 °C.

As for `Brc1ccc([C@H]2Cc3cnc(Nc4ccc(CCN5CCCCC5)cc4)nc3-c3ccccc32)cc1` (as salt: hydrochloride) [Example 108, (R)-6-(4-bromophenyl)-N-(4-(2-(piperidin-1-yl)ethyl)phenyl)-5,6-dihydrobenzo[h]quinazolin-2-amine hydrochloride salt], the melting point fell in the range of 170 to 175 °C.

`Nc1ncc2c(n1)-c1ccccc1C(c1ccc(Cl)c(Cl)c1)C2` (stereo not drawn): the melting point lay within 159 to 160 °C.

In turn, `CCCCN(C)CCc1ccc(Nc2ncc3c(n2)-c2ccccc2C(c2ccccc2C(F)(F)F)C3)cc1` (stereo not drawn) [Example 68, N-(4-(2-(butyl(methyl)amino)ethyl)phenyl)-6-(2-(trifluoromethyl)phenyl)-5,6-dihydrobenzo[h]quinazolin-2-amine] showed a melting point of 80 to 82 °C.

In turn, `CC(C)(C)OC(=O)N1CCC[C@@H](Nc2ncc3c(n2)-c2ccccc2[C@@H](c2ccc(Cl)c(Cl)c2)C3)C1` showed a melting point of 85 to 87 °C.

Regarding `OCCc1ccc(Nc2ncc3c(n2)-c2ccccc2C(c2cccc(Br)c2)C3)cc1` (stereo not drawn) [Example 7, 2-(4-(6-(3-bromophenyl)-5,6-dihydrobenzo[h]quinazolin-2-ylamino)phenyl)ethanol], the melting point was in the range of 88 to 90 °C.

Compound `COCCNCCc1ccc(Nc2ncc3c(n2)-c2ccccc2C(c2ccccc2C(F)(F)F)C3)cc1` (stereo not drawn) [Example 70, N-(4-(2-(2-methoxyethylamino)ethyl)phenyl)-6-(2-(trifluoromethyl)phenyl)-5,6-dihydrobenzo[h]quinazolin-2-amine] displayed a melting point of 61 to 62 °C.

With `Brc1cccc(C2Cc3cnc(Nc4ccc(CCNCc5ccccc5)cc4)nc3-c3ccccc32)c1` (stereo not drawn) [Example 46, N-(4-(2-(benzylamino)ethyl)phenyl)-6-(3-bromophenyl)-5,6-dihydrobenzo[h]quinazolin-2-amine], the melting point was 98 to 100 °C.

`COCCN1CCN(Cc2cccc(Nc3ncc4c(n3)-c3ccccc3[C@H](c3ccccc3F)C4)c2)CC1` (as salt: hydrochloride) [Example 179, (R)-6-(2-fluorophenyl)-N-(3-((4-(2-methoxyethyl)piperazin-1-yl)methyl)phenyl)-5,6-dihydrobenzo[h]quinazolin-2-amine hydrochloride] gave a melting point of 173 to 178 °C.

The compound `N#Cc1c(NCCCN2CCCC2)ncc2c1-c1ccccc1C(c1ccc(Cl)c(Cl)c1)C2` (stereo not drawn) [Example 180, 6-(3,4-dichlorophenyl)-2-(3-(pyrrolidin-1-yl)propylamino)-5,6-dihydrobenzo[f]isoquinoline-1-carbonitrile] yielded a melting point of 104 to 110 °C.

In the case of `OCCc1ccccc1Nc1ncc2c(n1)-c1ccccc1[C@H](c1ccccc1F)C2` [Example 177, (R)-2-(2-(6-(2-fluorophenyl)-5,6-dihydrobenzo[h]quinazolin-2-ylamino)phenyl)ethanol], the melting point lay within 162 to 163 °C.

The compound `Clc1ccc(C2Cc3cnc(Nc4ccc(CCN5CCCCC5)cc4)nc3-c3ccccc32)cc1` (stereo not drawn) (as salt: hydrochloride) [Example 53, 6-(4-chlorophenyl)-N-(4-(2-(piperidin-1-yl)ethyl)phenyl)-5,6 dihydrobenzo[h]quinazolin-2-amine] yielded a melting point of 170 to 175 °C.

`CN(C)CCCNc1ncc2c(n1)-c1ccccc1C(c1cccc(Br)c1)C2` (stereo not drawn) [Example 5, N^1-(6-(3-bromophenyl)-5,6-dihydrobenzo[h]quinazolin-2-yl)-N^3,N^3-dimethylpropane-1,3-diamine] registered a melting point of 120 to 122 °C.

`CN(CCc1ccccc1)CCc1ccc(Nc2ncc3c(n2)-c2ccccc2[C@H](c2ccc(Cl)c(Cl)c2)C3)cc1` (as salt: hydrochloride) [Example 104, (S)-6-(3,4-dichlorophenyl)-N-(4-(2-(methyl(phenethyl)amino)ethyl)phenyl)-5,6-dihydrobenzo[h]quinazolin-2-amine hydrochloride salt] displayed a melting point of 170 to 175 °C.

`Brc1cccc([C@@H]2Cc3cnc(Nc4ccc(CCN5CCCCC5)cc4)nc3-c3ccccc32)c1` (as salt: hydrochloride) [Example 78, (S)-6-(3-bromophenyl)-N-(4-(2-(piperidin-1-yl)ethyl)phenyl)-5,6-dihydrobenzo[h]quinazolin-2-amine hydrochloride] had a melting point of 120 to 125 °C.

`CN(C)CCc1ccc(Nc2ncc3c(n2)-c2ccccc2[C@H](c2ccc(F)c(F)c2)C3)cc1` (as salt: hydrochloride) [Example 87, (S)-6-(3,4-difluorophenyl)-N-(4-(2-(dimethylamino)ethyl)phenyl)-5,6-dihydrobenzo[h]quinazolin-2-amine hydrochloride]: the melting point fell in the range of 165 to 167 °C.

For the compound `Nc1ncc2c(n1)-c1ccccc1[C@@H](c1ccc(Cl)c(Cl)c1)C2`, the melting point lay in the range of 159 to 160 °C.

`Clc1ccccc1[C@H]1Cc2cnc(Nc3ccc(CCN4CCCCC4)cc3)nc2-c2ccccc21` (as salt: hydrochloride) yielded a melting point of 164 to 167 °C.

Take `COCCN1CCN(CCc2ccc(Nc3ncc4c(n3)-c3ccccc3[C@H](c3ccc(Cl)cc3)C4)cc2)CC1` (as salt: hydrochloride) [Example 113, (S)-6-(4-chlorophenyl)-N-(4-(2-(4-(2-methoxyethyl)piperazin-1-yl)ethyl)phenyl)-5,6-dihydrobenzo[α]quinazolin-2-amine hydrochloride]: the melting point lay in the range of 261 to 263 °C.

On to `CN1CCN(CCc2ccc(Nc3ncc4c(n3)-c3ccccc3[C@H](c3ccc(F)c(F)c3)C4)cc2)CC1` (as salt: hydrochloride) [Example 88, (S)-6-(3,4-difluorophenyl)-N-(4-(2-(4-methylpiperazin-1-yl)ethyl)phenyl)-5,6-dihydrobenzo[h]quinazolin-2-amine hydrochloride], for which the melting point is 90 to 92 °C.

With `Nc1cc2c(cn1)CC(c1ccc(Cl)cc1Cl)c1ccccc1-2` (stereo not drawn) [Example 156, 6-(2,4-dichlorophenyl)-5,6-dihydrobenzo[f]isoquinolin-2-amine], the melting point fell in the range of 189 to 193 °C.

Compound `CN(CCc1ccc(Nc2ncc3c(n2)-c2ccccc2C(c2cccc(Br)c2)C3)cc1)CCc1ccccn1` (stereo not drawn) [Example 36, 6-(3-bromophenyl)-N-(4-(2-(methyl(2-(pyridin-2-yl)ethyl)amino)ethyl)phenyl)-5,6-dihydrobenzo[h]quinazolin-2-amine] displayed a melting point of 75 to 77 °C.

For orientation: melting point means the temperature, or range, at which the solid turns liquid.

Values taken from patent US8357694B2, “Substituted 5,6-dihydro-6-phenylbenzo[F]isoquinolin-2-amine compounds” (ArQule, Inc., priority 2008, dated 2013).
